Experimental data: patent publication US12071404B2, “Aza (indole)-, benzothiophene-, and benzofuran-3-sulfonamides” (UCB Pharma GmbH, priority 2016, dated 2024)

Legend:
[1] = cited from earlier work
[2] = in vivo; cited from earlier work
GPR17 [3] = molecular target: T1, GPR17 (Homo sapiens, UniProt Q13304); settings: activating ligands for GPR17; cited from earlier work
Target sequence in this assay (Q13304 whole entry, species assumed): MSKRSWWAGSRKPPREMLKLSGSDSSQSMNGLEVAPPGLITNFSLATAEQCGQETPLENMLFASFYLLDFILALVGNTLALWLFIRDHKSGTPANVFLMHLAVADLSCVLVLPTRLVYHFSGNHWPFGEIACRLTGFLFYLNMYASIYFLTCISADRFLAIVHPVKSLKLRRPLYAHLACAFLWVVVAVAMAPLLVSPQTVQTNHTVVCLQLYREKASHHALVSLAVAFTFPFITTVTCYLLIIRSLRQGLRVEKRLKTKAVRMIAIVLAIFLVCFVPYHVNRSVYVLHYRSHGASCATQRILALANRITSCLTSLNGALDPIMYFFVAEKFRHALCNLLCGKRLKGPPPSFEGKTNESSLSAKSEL

GPR17 [4] = molecular target: T1, GPR17; assay: Calcium mobilization functional assay (GPR17 Ca2+ assay); assay type: cell-based; set-up: host or cells: Flp-In T-REx CHO; settings: CHO hGPR17 cells, inhibition of 50 nM MDL29,951, Calcium 5 dye, FLIPR; read-out: Ca2+ assay pIC50 (converted)
Outline: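 Flp-In T-REx CHO cells stably expressing human GPR17, doxycycline-induced (1 μg/mL, 16-20 h), loaded 60 min with Calcium 5 dye. Inhibition by varying test-compound concentrations of the 50 nM MDL29,951 agonist response was read by fluorescence over time at room temperature. pIC50 came from 4-parameter logistic fitting.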
Target sequence in this assay (Q13304 whole entry): as the sequence (Q13304 whole entry, species assumed) above

GPR17 [5] = molecular target: T1, GPR17; assay: cAMP accumulation functional assay (HTRF, Schild analysis); assay type: cell-based; set-up: host or cells: Flp-In T-REx CHO; settings: CHO hGPR17 cells, Schild analysis vs MDL29,951, 5 μM forskolin, read-out: cAMP assay pA2 (converted)
Outline: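 CHO Flp-In T-REx cells with doxycycline-induced human GPR17 were preincubated 30 min at room temperature in HBSS-HEPES pH 7.4 with antagonist. cAMP was then measured by HTRF after 60 min. MDL29,951 pEC50 shifts gave dose ratios, and Schild analysis gave pA2.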
Target sequence in this assay (Q13304 whole entry): as the sequence (Q13304 whole entry, species assumed) above

For `O=C(Nc1cccc2c(=O)cc(-c3nnn[nH]3)oc12)c1ccc(OCCCCc2ccccc2)cc1` [pranlukast], the protein binding [1] is listed as “high protein binding” and the brain penetration [2] is listed as “poor brain penetration”.

For `CC(C)(O)c1ccccc1CC[C@@H](SCC1(CC(=O)O)CC1)c1cccc(/C=C/c2ccc3ccc(Cl)cc3n2)c1` [montekulast, Montelukast], the protein binding [1] is given as “high protein binding” and the brain penetration [2] is given as “poor brain penetration”.

In the case of `NCC(=O)CCC(=O)O` [Compound 5-ALA, 5 amino levulinic acid], the “amounts needed in the GPR17 assays (reported affinity quite low)” value (GPR17 [3]) is listed as “three digit micromolar range”.

`O=S(=O)(Nc1cc(F)c(OC(F)F)cc1F)c1c[nH]c2nc(C(F)F)ccc12` [Compound I-363, N-[4-(difluoromethoxy)-2,5-difluorophenyl]-6-(difluoromethyl)-1H-pyrrolo[2,3-b]pyridine-3-sulfonamide] gave an IC50 (GPR17 [4]) of 3.16 to 31.6 nM and a Kb (GPR17 [5]) of 3.16 to 31.6 nM.

In the case of `O=S(=O)(Nc1nc(F)c(Cl)cc1F)c1c[nH]c2c1ccc1ccccc12` [Compound I-304, N-(5-chloro-3,6-difluoropyridin-2-yl)-1H-benzo[g]indole-3-sulfonamide], the IC50 (GPR17 [4]) is reported as < 3.16 nM and the Kb (GPR17 [5]) is reported as < 3.16 nM.

With `O=S(=O)(Nc1cc(F)c(Cl)cc1F)c1c[nH]c2nc(Cl)ccc12` [Compound I-227, 6-chloro-N-(4-chloro-2,5-difluorophenyl)-1H-pyrrolo[2,3-b]pyridine-3-sulfonamide] the IC50 (GPR17 [4]) was < 3.16 nM and the Kb (GPR17 [5]) was < 3.16 nM.

In the case of `O=S(=O)(Nc1cc(F)c(C(F)(F)F)cc1F)c1c[nH]c2cc(Cl)ccc12` [Compound I-269, 6-chloro-N-[2,5-difluoro-4-(trifluoromethyl)phenyl]-1H-indole-3-sulfonamide], the IC50 (GPR17 [4]) is reported as < 3.16 nM and the Kb (GPR17 [5]) is reported as < 3.16 nM.

`COc1nc(NS(=O)(=O)c2c[nH]c3c(F)c(Cl)c(F)cc23)c(F)cc1Cl` [Compound I-340, 6-chloro-N-(5-chloro-3-fluoro-6-methoxypyridin-2-yl)-5,7-difluoro-1H-indole-3-sulfonamide] showed an IC50 (GPR17 [4]) of 3.16 to 31.6 nM and a Kb (GPR17 [5]) of 3.16 to 31.6 nM.

Molecule `CS(=O)(=O)c1ccc2c(S(=O)(=O)Nc3cc4c(cc3F)OC(F)(F)O4)c[nH]c2c1` [Compound I-238, 6-(methylsulfonyl)-N-(2,2,6-trifluoro-1,3-benzodioxol-5-yl)-1H-indole-3-sulfonamide] has an IC50 (GPR17 [4]) of 3.16 to 31.6 nM and a Kb (GPR17 [5]) of 3.16 to 31.6 nM.

In the case of `N#CCCc1cc(F)c(NS(=O)(=O)c2c[nH]c3c2ccc2cccnc23)cc1F` [Compound I-362, N-[4-(2-cyanoethyl)-2,5-difluorophenyl]-1H-pyrrolo[3,2-h]quinoline-3-sulfonamide], the IC50 (GPR17 [4]) is reported as 3.16 to 31.6 nM and the Kb (GPR17 [5]) is reported as < 3.16 nM.

For `COc1cc(Br)c(F)nc1NS(=O)(=O)c1c[nH]c2cc(Cl)ccc12` [Compound I-349, N-(5-bromo-6-fluoro-3-methoxypyridin-2-yl)-6-chloro-1H-indole-3-sulfonamide], the IC50 (GPR17 [4]) was < 3.16 nM and the Kb (GPR17 [5]) was < 3.16 nM.

For `CCOC(=O)/C=C/c1cc(F)c(NS(=O)(=O)c2c[nH]c3cc(Cl)ccc23)nc1F` [Compound I-330, Ethyl (2E)-3-(6-{[(6-chloro-1H-indol-3-yl)sulfonyl]amino}-2,5-difluoropyridin-3-yl)prop-2-enoate], the IC50 (GPR17 [4]) was 3.16 to 31.6 nM and the Kb (GPR17 [5]) was < 3.16 nM.

With `O=S(=O)(Nc1ncc(C(F)(F)F)cc1F)c1c[nH]c2cc(Cl)ccc12` [Compound I-297, 6-chloro-N-[3-fluoro-5-(trifluoromethyl)pyridin-2-yl]-1H-indole-3-sulfonamide] the IC50 (GPR17 [4]) was 3.16 to 31.6 nM and the Kb (GPR17 [5]) was < 3.16 nM.

With `Cc1cc(F)c(NS(=O)(=O)c2c[nH]c3cc(Cl)ccc23)cc1F` [Compound I-270, 6-chloro-N-(2,5-difluoro-4-methylphenyl)-1H-indole-3-sulfonamide] the IC50 (GPR17 [4]) was < 3.16 nM and the Kb (GPR17 [5]) was < 3.16 nM.

For `O=S(=O)(Nc1nc(F)ccc1F)c1c[nH]c2cc(Cl)ccc12` [Compound I-200, 6-chloro-N-(3,6-difluoropyridin-2-yl)-1H-indole-3-sulfonamide], the IC50 (GPR17 [4]) was 3.16 to 31.6 nM and the Kb (GPR17 [5]) was 3.16 to 31.6 nM.
